Positions count from the first letter of the chain named.
Columns and labels:
[1] = target: T1, 12-LOX mutant A417I/V418M/S594T (Homo sapiens, UniProt P18054, A417I/S594T/V418M); experiment: UV-Vis-based IC50 assay, A417I/V418M/S594T mutant; assay type: biochemical
T1 construct: 6xHis (N); made in house; pFastBac1 shuttle vector
T1 sequence (P18054 1-663 A417I/V418M/S594T): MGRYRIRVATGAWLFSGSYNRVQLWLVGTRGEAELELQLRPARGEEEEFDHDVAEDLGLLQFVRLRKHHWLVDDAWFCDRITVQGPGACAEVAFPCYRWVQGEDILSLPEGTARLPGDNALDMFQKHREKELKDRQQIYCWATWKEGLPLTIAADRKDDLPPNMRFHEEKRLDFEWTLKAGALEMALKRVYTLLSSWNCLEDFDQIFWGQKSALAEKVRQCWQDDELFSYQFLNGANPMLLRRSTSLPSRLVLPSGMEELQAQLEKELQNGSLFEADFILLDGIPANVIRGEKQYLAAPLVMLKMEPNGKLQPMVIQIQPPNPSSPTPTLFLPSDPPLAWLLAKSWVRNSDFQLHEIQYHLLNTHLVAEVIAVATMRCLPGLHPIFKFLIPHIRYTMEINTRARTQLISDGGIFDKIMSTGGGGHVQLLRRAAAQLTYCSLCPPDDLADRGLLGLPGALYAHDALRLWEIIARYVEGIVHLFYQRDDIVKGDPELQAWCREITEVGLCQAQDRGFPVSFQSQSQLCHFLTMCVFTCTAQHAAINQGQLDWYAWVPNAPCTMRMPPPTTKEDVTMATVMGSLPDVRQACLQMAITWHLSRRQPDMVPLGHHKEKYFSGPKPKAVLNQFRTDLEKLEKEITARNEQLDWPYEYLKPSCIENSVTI
Description: (§1) Based on the ML355 binding mode predicted by the modeling, all residues within 5 Å of any atom of ML355 were selected for experimental mutagenesis. The selected residues were replaced with amino acids with either bulkier or smaller side chains in order to determine what specific interactions play a role in inhibitor binding. […] The numbering refers to the UniProt accession number P18054 sequence, with the N-terminal methionine assigned as amino acid number one. The primers for all mutants were designed using the online QuikChange Primer Design tool (http://www.genomics.agilent.com/primerDesignProgram.jsp) from Agilent Technologies (CA, USA). The mutations were introduced by using the QuikChange® II XL site-directed mutagenesis kit from Agilent, following the instructions in the protocol provided. […]
(§2) The wild type 12-LOX (wt-12-LOX) enzyme and its mutants were expressed as fusion proteins, with an N-terminal 6×His tag, and were affinity purified by nickel-iminodiacetic acid agarose using FPLC (Biorad).
(§3) The percent inhibition was determined by comparing the enzyme rates of the control (DMSO solvent) and the inhibitor sample by following the formation of the conjugated diene product at 234 nm (ε=25,000 M^−1cm^−1). […] The substrate concentration was quantitatively determined by allowing the enzymatic reaction to go to completion in the presence of soybean LOX-1. […]

[2] = target: T2, 12-LOX mutant L407G/A417I/V418M (Homo sapiens, UniProt P18054, A417I/L407G/V418M); experiment: UV-Vis-based IC50 assay, L407G/A417I/V418M mutant; assay type: biochemical
T2 construct: 6xHis (N); made in house; pFastBac1 shuttle vector
T2 sequence (P18054 1-663 L407G/A417I/V418M): T1 sequence (P18054 1-663 A417I/V418M/S594T) with L407G, T594S
Description: as §1, §2, §3

[3] = 20 uM inhibitor, read-out: Percent inhibition at 20 uM inhibitor

Compound: COc1cccc(CNc2ccc(S(=O)(=O)Nc3nc4c(ccc5ccccc54)s3)cc2)c1O [Compound LOX-12-001, 4-((2-hydroxy-3-methoxybenzyl)amino)-N-(naphtho[1,2-d]thiazol-2-yl)benzenesulfonamide]
- IC50 [1]: > 20 µM
- inhibition at 20 µM [1, 3]: 44%
- IC50 [2]: > 150 µM
- inhibition at 20 µM [2, 3]: 10%
